Reference: patent US4868321A, “Isothiocyanate intermediates” (FMC Corporation, priority 1988, dated 1989)

Legend:
Format in all cases: in vivo
[1] = system: Cotton; assay: Preemergence Herbicidal Activity, Cotton; conditions: Gossypium hirsutum, pre-emergence; for plant injury at 2000 g/ha: 2.0 kg/ha
Procedure, shortened: (§1)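 Test compounds were applied, usually as solutions in 50/50 acetone/water, to plants postemergence or to soil preemergence. Rates are given in kg/ha, and activity is scored as percent control (% C).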

[2] = system: Soybean; assay: Preemergence Herbicidal Activity, Soybean; conditions: Glycine max, pre-emergence; for plant injury at 2000 g/ha: 2.0 kg/ha
Procedure, shortened: (§2)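 Herbicidal response was graded as percent control. Compound rates were in kg/ha.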

[3] = system: Field Corn; assay: Preemergence Herbicidal Activity, Field Corn; conditions: Zea mays, pre-emergence; for plant injury at 2000 g/ha: 2.0 kg/ha
Procedure, shortened: as §2

[4] = system: Rice; assay: Preemergence Herbicidal Activity, Rice; conditions: Oryza sativa, pre-emergence; for plant injury at 2000 g/ha: 2.0 kg/ha
Procedure, shortened: as §2

[5] = system: Wheat; assay: Preemergence Herbicidal Activity, Wheat; conditions: Triticum aestivum, pre-emergence; for plant injury at 2000 g/ha: 2.0 kg/ha
Procedure, shortened: as §2

[6] = system: Field Bindweed; assay: Preemergence Herbicidal Activity, Field Bindweed; conditions: pre-emergence; for pest or weed control at 2000 g/ha: 2.0 kg/ha
Procedure, shortened: as §1

[7] = system: Morningglory; assay: Preemergence Herbicidal Activity, Morningglory; conditions: Ipomoea, pre-emergence; for pest or weed control at 2000 g/ha: 2.0 kg/ha
Procedure, shortened: as §1

[8] = system: Velvetleaf; assay: Preemergence Herbicidal Activity, Velvetleaf; conditions: Abutilon theophrasti, pre-emergence; for pest or weed control at 2000 g/ha: 2.0 kg/ha
Procedure, shortened: as §1

[9] = system: Barnyardgrass; assay: Preemergence Herbicidal Activity, Barnyardgrass; conditions: Echinochloa crus-galli, pre-emergence; for pest or weed control at 2000 g/ha: 2.0 kg/ha
Procedure, shortened: (§3)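 Application rate is expressed per hectare in kilograms. Values are percent control.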

[10] = system: Green Foxtail; assay: Preemergence Herbicidal Activity, Green Foxtail; conditions: Setaria viridis, pre-emergence; for pest or weed control at 2000 g/ha: 2.0 kg/ha
Procedure, shortened: as §3

[11] = system: Johnsongrass; assay: Preemergence Herbicidal Activity, Johnsongrass; conditions: Sorghum halepense, pre-emergence; for pest or weed control at 2000 g/ha: 2.0 kg/ha
Procedure, shortened: as §3

[12] = system: Cotton; assay: Postemergence Herbicidal Activity, Cotton; conditions: Gossypium hirsutum, post-emergence; for plant injury at 2000 g/ha: 2.0 kg/ha
Procedure, shortened: as §1

[13] = system: Soybean; assay: Postemergence Herbicidal Activity, Soybean; conditions: Glycine max, post-emergence; for plant injury at 2000 g/ha: 2.0 kg/ha
Procedure, shortened: as §2

[14] = system: Field Corn; assay: Postemergence Herbicidal Activity, Field Corn; conditions: Zea mays, post-emergence; for plant injury at 2000 g/ha: 2.0 kg/ha
Procedure, shortened: as §2

[15] = system: Rice; assay: Postemergence Herbicidal Activity, Rice; conditions: Oryza sativa, post-emergence; for plant injury at 2000 g/ha: 2.0 kg/ha
Procedure, shortened: as §2

[16] = system: Wheat; assay: Postemergence Herbicidal Activity, Wheat; conditions: Triticum aestivum, post-emergence; for plant injury at 2000 g/ha: 2.0 kg/ha
Procedure, shortened: as §2

[17] = system: Field Bindweed; assay: Postemergence Herbicidal Activity, Field Bindweed; conditions: post-emergence; for pest or weed control at 2000 g/ha: 2.0 kg/ha
Procedure, shortened: as §1

[18] = system: Morningglory; assay: Postemergence Herbicidal Activity, Morningglory; conditions: Ipomoea, post-emergence; for pest or weed control at 2000 g/ha: 2.0 kg/ha
Procedure, shortened: as §1

[19] = system: Velvetleaf; assay: Postemergence Herbicidal Activity, Velvetleaf; conditions: Abutilon theophrasti, post-emergence; for pest or weed control at 2000 g/ha: 2.0 kg/ha
Procedure, shortened: as §1

[20] = system: Barnyardgrass; assay: Postemergence Herbicidal Activity, Barnyardgrass; conditions: Echinochloa crus-galli, post-emergence; for pest or weed control at 2000 g/ha: 2.0 kg/ha
Procedure, shortened: as §3

[21] = system: Green Foxtail; assay: Postemergence Herbicidal Activity, Green Foxtail; conditions: Setaria viridis, post-emergence; for pest or weed control at 2000 g/ha: 2.0 kg/ha
Procedure, shortened: as §3

[22] = system: Johnsongrass; assay: Postemergence Herbicidal Activity, Johnsongrass; conditions: Sorghum halepense, post-emergence; for pest or weed control at 2000 g/ha: 2.0 kg/ha
Procedure, shortened: as §3

`O=c1n(CCCF)nnn1-c1cc(NS(=O)(=O)C(F)(F)F)c(Cl)cc1Cl` [Compound 35, 1-[2,4-Dichloro-5-(N--trifluoromethylsulfonylamino)phenyl]-4,5-dihydro-4-(3-fluoropropyl)-5H--tetrazol-5-one] showed a plant injury at 4000 g/ha ([1]; 4.0 kg/ha) of 100%, a plant injury at 4000 g/ha ([2]; 4.0 kg/ha) of 80% and a plant injury at 4000 g/ha ([3]; 4.0 kg/ha) of 50%. For the same compound, the plant injury at 4000 g/ha ([4]; 4.0 kg/ha) was 95%, the plant injury at 4000 g/ha ([5]; 4.0 kg/ha) was 70% and the pest or weed control at 4000 g/ha ([6]; 4.0 kg/ha) was 100%. The pest or weed control at 4000 g/ha ([7]; 4.0 kg/ha) was 100%, the pest or weed control at 4000 g/ha ([8]; 4.0 kg/ha) was 100% and the pest or weed control at 4000 g/ha ([9]; 4.0 kg/ha) was 90%. The pest or weed control at 4000 g/ha ([10]; 4.0 kg/ha) was 100%, the pest or weed control at 4000 g/ha ([11]; 4.0 kg/ha) was 95% and the plant injury at 4000 g/ha ([12]; 4.0 kg/ha) was 100%. It also gave a plant injury at 4000 g/ha ([13]; 4.0 kg/ha) of 100%, a plant injury at 4000 g/ha ([14]; 4.0 kg/ha) of 70% and a plant injury at 4000 g/ha ([15]; 4.0 kg/ha) of 80%. The plant injury at 4000 g/ha ([16]; 4.0 kg/ha) was 40%, the pest or weed control at 4000 g/ha ([17]; 4.0 kg/ha) was 95% and the pest or weed control at 4000 g/ha ([18]; 4.0 kg/ha) was 100%. For the same compound, the pest or weed control at 4000 g/ha ([19]; 4.0 kg/ha) was 100%, the pest or weed control at 4000 g/ha ([20]; 4.0 kg/ha) was 70% and the pest or weed control at 4000 g/ha ([21]; 4.0 kg/ha) was 100%. For the same compound, the pest or weed control at 4000 g/ha ([22]; 4.0 kg/ha) was 90%.
For `CS(=O)(=O)N(c1cc(-n2nnn(CCCF)c2=O)c(Cl)cc1F)S(C)(=O)=O` [Compound 36, 1-[2-Chloro-4-fluoro-5-[bis-(N--methylsulfonyl)amino]phenyl]-4,5-dihydro-4-(3-fluoropropyl)-5H--tetrazol-5-one], the plant injury at 2000 g/ha [1] was 70%, the plant injury at 2000 g/ha [2] was 0% and the plant injury at 2000 g/ha [3] was 70%. The plant injury at 2000 g/ha [4] was 0%, the plant injury at 2000 g/ha [5] was 0% and the pest or weed control at 2000 g/ha [6] was 100%. It also gave a pest or weed control at 2000 g/ha [7] of 90%, a pest or weed control at 2000 g/ha [8] of 95% and a pest or weed control at 2000 g/ha [9] of 70%. It also gave a pest or weed control at 2000 g/ha [10] of 50%, a pest or weed control at 2000 g/ha [11] of 40% and a plant injury at 2000 g/ha [12] of 70%. The plant injury at 2000 g/ha [13] was 10%, the plant injury at 2000 g/ha [14] was 10% and the plant injury at 2000 g/ha [15] was 10%. It also gave a plant injury at 2000 g/ha [16] of 10%, a pest or weed control at 2000 g/ha [17] of 60% and a pest or weed control at 2000 g/ha [18] of 80%. The pest or weed control at 2000 g/ha [19] was 90%, the pest or weed control at 2000 g/ha [20] was 50% and the pest or weed control at 2000 g/ha [21] was 50%. For the same compound, the pest or weed control at 2000 g/ha [22] was 50%.
Compound `CCS(=O)(=O)N(c1cc(-n2nnn(CCCF)c2=O)c(Cl)cc1F)S(=O)(=O)CC` [Compound 37, 1-[2-Chloro-4-fluoro-5-[bis(N--ethylsulfonyl)amino]phenyl]-4,5-dihydro-4-(3-fluoropropyl)-5H--tetrazol-5-one] has a plant injury at 2000 g/ha [1] of 10%, a plant injury at 2000 g/ha [2] of 0% and a plant injury at 2000 g/ha [3] of 20%. The plant injury at 2000 g/ha [4] was 0%, the plant injury at 2000 g/ha [5] was 30% and the pest or weed control at 2000 g/ha [6] was 20%. It also gave a pest or weed control at 2000 g/ha [7] of 20%, a pest or weed control at 2000 g/ha [8] of 100% and a pest or weed control at 2000 g/ha [9] of 80%. It also gave a pest or weed control at 2000 g/ha [10] of 50%, a pest or weed control at 2000 g/ha [11] of 70% and a plant injury at 2000 g/ha [12] of 70%. It also gave a plant injury at 2000 g/ha [13] of 40%, a plant injury at 2000 g/ha [14] of 20% and a plant injury at 2000 g/ha [15] of 20%. It also gave a plant injury at 2000 g/ha [16] of 20%, a pest or weed control at 2000 g/ha [17] of 40% and a pest or weed control at 2000 g/ha [18] of 50%. It also gave a pest or weed control at 2000 g/ha [19] of 80%, a pest or weed control at 2000 g/ha [20] of 30% and a pest or weed control at 2000 g/ha [21] of 50%. For the same compound, the pest or weed control at 2000 g/ha [22] was 20%.
